# Laboratory results from patent publication US9334235B2, “Plasmalogen compounds, pharmaceutical compositions containing the same and methods for treating diseases of the aging” (Phenomenome Discoveries Inc., priority 2008, dated 2016).
# Tests used:
# HEK293 cells [1] = assay: Cholesterol assay (free/esterified cholesterol) in HEK293 cells; type: cell-based, human; conditions: for membrane cholesterol (membrane free cholesterol levels): 20 μM
# Protocol: (§1) Chinese hamster ovary (CHO), N-Rel^30 (a mutant CHO cell line deficient in the peroxisomal enzyme dihydroxyacetonephosphate acyltransferase), and human embryonic kidney (HEK293) cells were grown in 10 cm^2 dishes in DMEM/Ham's F12 (1:1) containing 10% FBS. Cells were incubated with plasmalogen precursors dissolved in ethanol (final ethanol concentration of 0.1%) and harvested for plasmalogen analysis by LC-MS-MS^31, and cholesterol and cholesterol ester analyses utilizing a commercial colorimetric kit (BioVision #K613).
# (§2) HEK 293 cells, cultured in DMEM, 10% FBS at 37° C., 5% CO2, were seeded the day before the treatment. The following day, cells membranes were loaded with exogenous cholesterol at a concentration of 10 μg/ml media using methyl-β-cyclodextrin as the carrier to deliver cholesterol as described (Rong et al., 2003).
# Cells were treated with the plasmalogen precursor PPI-1005 or with ethanol as the control. Cells were harvested after 48 hours using Versene: TryPLe express cocktail, washed with PBS. Lipids were extracted with chloroform containing 1% Triton X-100. The organic fraction was recovered and dried under a stream of nitrogen. The dried lipids were resuspended in cholesterol reaction buffer (Biovision, Mountain View, Calif.), and the total, free and esterified fractions of cholesterol were quantified using the cholesterol quantification kit (Biovision, Mountain View, Calif.) as per the manufacturer's recommendations. Cholesterol was initially calculated as μg/million cells, and reported as a percentage of control conditions for each experiment.
# HEK293 cells [2] = assay: Amyloid assay: Aβ secreted into conditioned medium of HEK293 cells (ELISA); type: cell-based, human; conditions: for levels of AB-40 / levels of AB-42: normal cells and cholesterol loaded cells
# Protocol: as §2
# HEK293 cells were loaded with exogenous cholesterol as described, and treated with a PPI 1005 or with ethanol as a control. Conditioned media from the treated cells was collected at the end of a 48 hour incubation period. For assaying Aβ1-42 content, the conditioned media was enriched using Amicon ultracentrifugal filter devices (Millipore, Billerica, Mass.) prior to loading into the microplate. ELISA was carried out as per the manufacturer's recommendations (Covance Labs, Princeton, N.J.). The reactions were quenched 25 minutes after addition of the substrate, and the absorbance was read at 495 nm. The experiment was carried out in triplicate. Values were calculated as pg/ml of conditioned media, and were normalized to the amount of Aβ detected in the conditioned media from untreated, cholesterol loaded control HEK293 cells.
# N-Rel cells [3] = assay: Plasmalogen analysis by LC-MS/MS in N-Rel cells incubated with plasmalogen precursors; type: cell-based, Chinese hamster; conditions: for conversion to PlsEtn species: cells with impaired plasmalogen biosynthesis capacity (N-Rel)
# Protocol: as §1
# CHO cells = assay: Plasmalogen analysis by LC-MS/MS in CHO cells incubated with plasmalogen precursors; type: cell-based, Chinese hamster; conditions: for DHA plasmalogens in CHO cells: 72 hr, relative to CHO controls; for conversion to PlsEtn species: cells with unimpaired plasmalogen biosynthesis capacity (CHO)
# Protocol: as §1
# N-Rel cells [4] = assay: Membrane cholesterol and cholesterol ester analysis (colorimetric kit) in N-Rel cells; type: cell-based, Chinese hamster; conditions: for membrane cholesterol esters (esterified cholesterol) / membrane free cholesterol: 20 μM, 48 hr incubation; for membrane cholesterol levels: N-Rel cells
# Protocol: as §1
# [5] = Oral dosing of rabbits: kidney plasmalogens and DHA; type: in vivo, New Zealand rabbits; conditions: 200 mg/kg orally; 1, 3, 6 and 12 hours
# Protocol: (§3) Male New Zealand rabbits (1.8-2.5 kg) were orally dosed with PPI-1011, neat in hard gelatin capsules (size 3). For time course studies, rabbits were dosed with 200 mg/kg of PPI-1011 and animals sacrificed via euthenol overdose at 1, 3, 6, 12, 18, 24 and 48 hr. Blood was collected by cardiac puncture and plasma frozen at −70° C. for later analysis. Kidney and liver also were harvested and stored at −70° C. for later analysis. These studies were conducted as 2 experiments with overlapping groups at 12 hrs (Exp. 1: 1, 3, 6, and 12 hrs; Exp. 2: 12, 18, 24 and 48 hrs). Controls were harvested at each timepoint. Plasmalogens and lipids were extracted and analyzed by LC-MS/MS as previously reported (Goodenowe et al., 2007).
# [6] = Oral dosing of rabbits: liver plasmalogens and DHA; type: in vivo, New Zealand rabbits; conditions: 200 mg/kg orally; 12, 18, 24 and 48 hours
# Protocol: as §3
# [7] = Oral dosing of rabbits: plasma plasmalogens, phosphatidylethanolamines and DHA by LC-MS/MS; type: in vivo, New Zealand rabbits
# Protocol: as §3
# BACE1 = assay: Immunoblotting of BACE1 (β-secretase) in HEK293 cells; type: cell-based, human
# Protocol: (§4) HEK293 cells were treated as described in the amyloid assay. The cell pellet was washed in PBS and lysed in a RIPA buffer containing a protease inhibitor cocktail (Sigma, St. Louis, […].). Protein in the cell lysate was quantified using the Bio-Rad Protein Assay (Bio-Rad, Hercules, Calif.). The following antibodies were used for western analyses: APP (Calbiochem, Darmstadt, Germany), BACE1 and ADAM10 (Millipore, Temecula, Calif.), sAPPα (IBL, Gunma, Japan), SOAT1 (Santa Cruz Biotechnology Inc., CA), and β-actin (Sigma, St. Louis, […].). Immunoprecipitation was carried out to estimate sAPPα in the conditioned medium. Briefly, antibody to sAPPα was added to conditioned media and incubated for 16 hours at 4° C. IP was carried out by incubating with protein A/G agarose beads for 6 hours at 4° C. Beads were washed with PBS and the eluted proteins were detected by immunoblotting with anti-sAPPα antibody. Band intensities were quantified using Image Processing and Analysis in Java (ImageJ) software (National Institutes of Health, Bethesda, Md.)
# ADAM10 = assay: Immunoblotting of membrane-resident protein ADAM10 in HEK293 cells; type: cell-based, human
# Protocol: as §4
# APP = assay: Immunoblotting of APP in HEK293 cells; type: cell-based, human; conditions: wild-type HEK293 cells, not loaded with cholesterol
# Protocol: as §4
# SOAT1 = assay: Immunoblotting of membrane-resident protein SOAT1 in HEK293 cells; type: cell-based, human
# Protocol: as §4
# sAPPα = assay: Immunoprecipitation/immunoblot of sAPPα in conditioned medium of HEK293 cells; type: cell-based, human; conditions: 20 μM; cholesterol loaded HEK293 cells
# Protocol: as §4
# [8] = wild-type HEK293 cells, not loaded with cholesterol
# [9] = cholesterol loaded HEK293 cells (FIG. 18A)
structure (smiles),measurement,setting,value
"CC/C=C\C/C=C\C/C=C\C/C=C\C/C=C\C/C=C\CCC(=O)OC(COCCCCCCCCCCCCCCCC)COC(=O)CC(C[N+](C)(C)C)OC(C)=O (stereo not shown) [PPI-1009, 2-acetoxy-4-(2-((4Z,7Z,10Z,13Z,16Z,19Z)-docosa-4,7,10,13,16,19-hexaenoyloxy)-3-(hexadecyloxy)propoxy)-N,N,N-trimethyl-4-oxobutan-1-aminium]","membrane cholesterol levels, concentration response",HEK293 cells [1]; 48 hr incubation,concentration-dependently decrease
same,basal and cholesterol (25.8 μM)-stimulated Aβ42 secretion,HEK293 cells [2]; 10 μM,acted in a similar manner
same,levels of AB-40,HEK293 cells [2],decreased
same,levels of AB-42,HEK293 cells [2],decreased
same,time course of incorporation into plasmalogens,"N-Rel cells [3]; 10 μM, 0, 6, 12, 24, 48 and 72 hr",incorporation into plasmalogens
same,cellular levels of chimyl alcohol or the associated alkenyl-acyl-glycerol,"N-Rel cells [3]; 10 μM, 0-72 hr, chimyl alcohol by GC-MS",lack of effect
same,conversion to PlsEtn species,N-Rel cells [3],effectively converted to PlsEtn species
same,DHA plasmalogens in CHO cells,CHO cells,concentration-dependent (72 hr) increase
same,conversion to PlsEtn species,CHO cells,effectively converted to PlsEtn species
same,membrane cholesterol esters (esterified cholesterol),N-Rel cells [4],augmentation
same,membrane free cholesterol,N-Rel cells [4],most robust decreases
same,membrane cholesterol levels,N-Rel cells [4],concentration-dependently decrease
"CC/C=C\C/C=C\C/C=C\C/C=C\C/C=C\C/C=C\CCC(=O)OC(COCCCCCCCCCCCCCCCC)COC(=O)CCCC[C@@H]1CCSS1 (stereo partly drawn) [PPI-1011, (4Z,7Z,10Z,13Z,16Z,19Z)-1-(5-((R)-1,2-dithiolan-3-yl)pentanoyloxy)-3-(hexadecyloxy)propan-2-yl docosa-4,7,10,13,16,19-hexaenoate]",tissue plasmalogens and DHA in rabbit kidney,[5],augmentation
same,tissue plasmalogens and DHA in rabbit liver,[6],augmentation
same,new steady-state level of plasma plasmalogens and phosphatidylethanolamines versus dose,"[7]; 6 hours after oral doses of 10, 75, 200 mg/kg",dose-dependent manner from 10 to 200 mg/kg
same,steady-state levels of circulating DHA,[7]; dose of 1000 mg/kg versus 500 mg/kg,did not further increase
same,steady-state levels of plasmalogens and phosphatidylethanolamines above that obtained with 200 mg/kg,"[7]; further increases in dose (500, 1000 mg/kg), 6 hours",did not increase
same,"deacylation at sn-2, releasing docosahexaenoic acid (DHA)",[7]; oral dose of 200 mg/kg,observed
same,reference phosphatidylethanolamine 16:0/18:0 in plasma,[7]; oral dose of 200 mg/kg,No change
same,incorporation into circulating plasmalogens,"[7]; oral dose of 200 mg/kg, rabbit plasma",incorporated into circulating plasmalogens
same,oral bioavailability,[7]; rabbit,orally bioavailable
"CC/C=C\C/C=C\C/C=C\C/C=C\C/C=C\C/C=C\CCC(=O)OC(COCCCCCCCCCCCCCCCC)COC(=O)C(CS)NC(C)=O (stereo not shown) [PPI-1014, (4Z,7Z,10Z,13Z,16Z,19Z)-1-(2-acetamido-3-mercaptopropanoyloxy)-3-(hexadecyloxy)propan-2-yl docosa-4,7,10,13,16,19-hexaenoate]",incorporation in N-Rel ethanolamine plasmalogens (PlsEtn) and phosphatidylethanolamines (PtdEtn),"N-Rel cells [3]; 72 hours, 5, 10 and 20 μM",structure-specific and concentration-dependent incorporation
"CCCCCCCCCCCCCCCCOCC(O)CO (stereo not shown) [chimyl alcohol, reference compound]",DHA-plasmalogens in N-Rel cells,N-Rel cells [3]; expressed relative to N-Rel controls,increased
same,DHA plasmalogens in CHO cells,CHO cells,no effect
CC/C=C\C/C=C\C/C=C\C/C=C\C/C=C\C/C=C\CCC(=O)OC(CO)COCCCCCCCCCCCCCCCC (stereo not shown) [PPI-1005],β-secretase abundance,"BACE1; 20 μM, cholesterol loaded HEK293 cells",restored to normal levels
same,BACE I abundance,BACE1; [8],No change
same,increase in ADAM10,ADAM10; [9],63%
same,concentration-dependent increase in abundance of ADAM10,ADAM10; [8],35%
same,APP abundance,APP,No change
same,membrane cholesterol (membrane free cholesterol levels),HEK293 cells [1]; 48 hr incubation,decrease
same,free cholesterol content of the cell membrane,"HEK293 cells [1]; cholesterol loaded HEK293 cells, 48 hours",significantly reduced
same,SOAT1 upregulation compared with the cholesterol loaded condition,SOAT1; [9],approximately 25%
same,concentration-dependent increase in abundance of SOAT1,SOAT1; [8],50%
same,basal and cholesterol (25.8 μM)-stimulated Aβ42 secretion,HEK293 cells [2]; 20 μM,decreases
same,"Aβ42 content in the conditioned medium, drop below cholesterol-loaded levels","HEK293 cells [2]; 20 μM, cholesterol loaded HEK293 cells, 48 hour incubation",70%
same,levels of AB-40,HEK293 cells [2],decreased
same,levels of AB-42,HEK293 cells [2],decreased
same,increase in sAPPα species in the conditioned medium,sAPPα,73%
same,"levels of total DHA plasmalogens in N-Rel cells, relative to control CHO cells",N-Rel cells [3]; 72 hr incubation,restored in a concentration-dependent manner
same,DHA-PlsEtn level,N-Rel cells [3]; N-Rel cells,80 % of control values
same,conversion to PlsEtn species,N-Rel cells [3],effectively converted to PlsEtn species
same,DHA plasmalogens in CHO cells,CHO cells,concentration-dependent (72 hr) increase
same,conversion to PlsEtn species,CHO cells,effectively converted to PlsEtn species
same,membrane cholesterol esters (esterified cholesterol),N-Rel cells [4],increases
same,membrane free cholesterol,N-Rel cells [4],decreases
same,membrane cholesterol levels,N-Rel cells [4],significant reduction
CCC=CCC=CCC=CCC=CCC=CCC=CCCC(=O)OC(CO)COCCCCCCCCCCCCCCCCCC (stereo not shown) [18:0/DHA glycerol],membrane cholesterol (membrane free cholesterol levels),HEK293 cells [1]; 48 hr incubation,decrease
"CCC=CCC=CCC=CCC=CCC=CCC=CCCC(=O)OC(CO)COC(=O)CCCCCCCCCCCCCCC (stereo not shown) [16:0*:DHA glycerol, reference compound]",membrane cholesterol (membrane free cholesterol levels),HEK293 cells [1]; 48 hr incubation,inactive
same,membrane free cholesterol,N-Rel cells [4],inactive
